# Measured values reported in patent US12624018B1, “Inhibitors of RIPK2 and medical uses thereof” (Odyssey Therapeutics, Inc., priority 2022, dated 2026).
# Target: T1, RIPK2 enzyme (Homo sapiens, UniProt O43353)
# T1 construct: purchased Carna 09-128
# Assay: RIPK2 inhibition (ADP-Glo Kinase Assay)
# Type: biochemical
# Details: RIPK2 5 nM, ATP 150 μM, MBP substrate, read-out: RIPK2 IC50
# Outline: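 Swine MBP substrate; compound and 5 nM RIPK2 first mixed for 30 min at room temperature; buffer pH 7.5 HEPES 50 mM with 10 mM MgCl2, 2 mM DTT, 1 mM EGTA, Brij-35, BSA.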
# T1 sequence (O43353 1-299 limits assumed): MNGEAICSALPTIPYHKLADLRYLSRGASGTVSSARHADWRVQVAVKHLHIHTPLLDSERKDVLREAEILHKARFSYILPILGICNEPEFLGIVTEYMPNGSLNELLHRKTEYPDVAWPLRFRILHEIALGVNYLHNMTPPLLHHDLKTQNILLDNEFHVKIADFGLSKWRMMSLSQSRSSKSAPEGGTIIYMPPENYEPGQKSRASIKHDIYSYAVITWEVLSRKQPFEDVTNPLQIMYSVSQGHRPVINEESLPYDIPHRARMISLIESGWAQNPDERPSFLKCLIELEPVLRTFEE
row,SMILES,IC50 [nM]
1,"Cc1c(Oc2ccnc3ccc(N4C(=O)CCC4C)cc23)ccc(CC(=O)Nc2cnn(C(C)(C)C)c2)c1F (single isomer, unassigned) [Compound 296, N-(1-(tert-butyl)-1H-pyrazol-4-yl)-2-(2-fluoro-3-methyl-4-((6-(2-methyl-5-oxopyrrolidin-1-yl)quinolin-4-yl)oxy)phenyl) acetamide]",< 2.5
2,"Cc1c(Oc2ccnc3ccc(S(C)(=O)=O)cc23)ccc(CC(=O)Nc2cc(C(C)(C)C)n[nH]2)c1F [Compound 175, N-(5-(tert-butyl)-1H-pyrazol-3-yl)-2-(2-fluoro-3-methyl-4-((6-(methylsulfonyl)quinolin-4-yl)oxy)phenyl)acetamide]",< 2.5
3,"CC(C)(C)n1cc(NC(=O)Cc2ncc(Oc3ncnc4ccc(O[C@H]5C[C@H]6CC[C@@H](C5)N6)cc34)cc2F)cn1 [Compound 289, 2-(5-((6-(((1R,3r,5S)-8-azabicyclo[3.2.1]octan-3-yl)oxy)quinazolin-4-yl)oxy)-3-fluoropyridin-2-yl)-N-(1-(tert-butyl)-1H-pyrazol-4-yl)acetamide]",4.3
4,"Cc1cc(CC(=O)Nc2cnn(C(C)(C)C)c2)c(F)cc1Oc1ccnc2ccc(C(=O)NC3CC(F)(F)C3)cc12 [Compound 398, 4-(4-(2-((1-(tert-butyl)-1H-pyrazol-4-yl)amino)-2-oxoethyl)-5-fluoro-2-methyl-phenoxy)-N-(3,3-difluoro-cyclobutyl) quinoline-6-carboxamide]",< 2.5
5,"CC(C)(C)n1cc(NC(=O)Cc2ccc(Oc3ccnc4ccc(S(C)(=O)=O)cc34)c(Cl)c2)cn1 [Compound 89, N-(1-(tert-butyl)-1H-pyrazol-4-yl)-2-(3-chloro-4-((6-(methylsulfonyl)quinolin-4-yl)oxy)phenyl)acetamide]",< 2.5
6,"Cc1cc(CC(=O)Nc2nnc(C(C)(C)C)o2)ccc1Oc1ccnc2ccc(S(C)(=O)=O)cc12 [Compound 431, N-(5-(tert-butyl)-1,3,4-oxadiazol-2-yl)-2-(3-methyl-4-((6-(methylsulfonyl)quinolin-4-yl)oxy)phenyl) acetamide]",< 2.5
7,"Cc1cc(CC(=O)Nc2cnn(C(C)(C)C)c2)ccc1Oc1ccnc2ccc(S(=O)(=O)CC(C)(C)O)cc12 [Compound 309, N-(1-(tert-butyl)-1H-pyrazol-4-yl)-2-(4-((6-((2-hydroxy-2-methylpropyl)sulfonyl)quinolin-4-yl)oxy)-3-methylphenyl)acetamide]",< 2.5
8,"COc1ccc2ncnc(Oc3cnc(C(C)C(=O)Nc4cnn(C(C)(C)C)c4)c(F)c3)c2c1 (single isomer, unassigned) [Compound 11, N-(1-(tert-butyl)-1H-pyrazol-4-yl)-2-(3-fluoro-5-((6-methoxyquinazolin-4-yl)oxy)pyridin-2-yl)propanamide]",70.7
9,"Cc1c(Oc2ccnc3ccc(C(=O)NC4CC(F)(F)C4)cc23)ccc(CC(=O)Nc2cnn(C(C)(C)C)c2)c1F [Compound 406, 4-(4-(2-((1-(tert-butyl)-1H-pyrazol-4-yl)amino)-2-oxoethyl)-3-fluoro-2-methylphenoxy)-N-(3,3-difluorocyclobutyl)quinoline-6-carboxamide]",< 2.5
10,"Cc1c(Oc2ccnc3ccc(OC4CCN(C)CC4)cc23)ccc(CC(=O)Nc2cnn(C(C)(C)C)c2)c1F [Compound 103, N-(1-(tert-butyl)-1H-pyrazol-4-yl)-2-(2-fluoro-3-methyl-4-((6-((1-methylpiperidin-4-yl)oxy)quinolin-4-yl)oxy)phenyl)acetamide]",< 2.5
11,"CNC(=O)c1ccc2nccc(Oc3ccc(CC(=O)Nc4cnn(C(C)(C)C)c4)c(F)c3C)c2c1 [Compound 335, 4-(4-(2-((1-(tert-butyl)-1H-pyrazol-4-yl)amino)-2-oxoethyl)-3-fluoro-2-methyl-phenoxy)-N-methyl-quinoline-6-carboxamide]",< 2.5
12,"Cc1nc(NC(=O)Cc2ncc(Oc3ncnc4ccc(F)cc34)cc2F)cc(C(C)(C)C)n1 [Compound 53, N-(6-(tert-butyl)-2-methylpyrimidin-4-yl)-2-(3-fluoro-5-((6-fluoroquinazolin-4-yl)oxy)pyridin-2-yl)acetamide]",225
13,"CC(C)(C)n1cc(NC(=O)Cc2ncc(Oc3ncnc4ccc(Cl)cc34)cc2F)cn1 [Compound 7, N-(1-(tert-butyl)-1H-pyrazol-4-yl)-2-(5-((6-chloroquinazolin-4-yl)oxy)-3-fluoro-pyridin-2-yl)acetamide]",24
14,"Cc1c(Oc2ccnc3ccc(S(=O)(=O)C4COC4)cc23)ccc(CC(=O)Nc2cnn(C(C)(C)C)c2)c1F [Compound 248, N-(1-(tert-butyl)-1H-pyrazol-4-yl)-2-(2-fluoro-3-methyl-4-((6-(oxetan-3-ylsulfonyl)quinolin-4-yl)oxy)phenyl)acetamide]",< 2.5
15,"Cc1cc(CC(=O)Nc2cnn(C(C)(C)C)c2)c(F)cc1Oc1ccnc2ccc(C(C)(C)O)cc12 [Compound 433, N-(1-(tert-butyl)-1H-pyrazol-4-yl)-2-(2-fluoro-4-((6-(2-hydroxypropan-2-yl)quinolin-4-yl)oxy)-5-methylphenyl)acetamide]",< 2.5
16,"CCS(=O)(=NC)c1ccc2nccc(Oc3ccc(CC(=O)Nc4cnn(C(C)(C)C)c4)c(F)c3)c2c1 (centres unmarked) [Compound 74, N-(1-(tert-butyl)-1H-pyrazol-4-yl)-2-(2-fluoro-4-((6-(N-methylethylsulfonimidoyl)quinolin-4-yl)oxy)phenyl)acetamide]",4
17,"Cc1cc(CC(=O)Nc2cnn(C(C)(C)C)c2)ccc1Oc1ccnc2ccc(OC3CCC(=O)NC3)cc12 (centres unmarked) [Compound 307, N-(1-(tert-butyl)-1H-pyrazol-4-yl)-2-(3-methyl-4-((6-((6-oxopiperidin-3-yl)oxy)quinolin-4-yl)oxy)phenyl) acetamide]",< 2.5
18,"CC(C)(C)n1cc(NC(=O)Cc2ccc(Oc3ncnc4ccc(OC5CCOCC5)cc34)cc2F)cn1 [Compound 133, N-(1-(tert-butyl)-1H-pyrazol-4-yl)-2-(2-fluoro-4-((6-((tetrahydro-2H-pyran-4-yl)oxy)quinazolin-4-yl)oxy)phenyl) acetamide]",10.9
19,"Cc1c(Oc2ccnc3ccc(S(=O)(=O)N4C[C@@H](C)N[C@@H](C)C4)cc23)ccc(CC(=O)Nc2cnn(C(C)(C)C)c2)c1F [Compound 387, N-(1-(tert-butyl)-1H-pyrazol-4-yl)-2-(4-((6-(((3R,5S)-3,5-dimethylpiperazin-1-yl)sulfonyl)quinolin-4-yl)oxy)-2-fluoro-3-methylphenyl)acetamide]",< 2.5
20,"Cc1cc(CC(=O)Nc2cnn(C(C)(C)C)c2)ccc1Oc1ccnc2ccc(S(=O)(=O)N3CCOCC3)cc12 [Compound 261, N-(1-(tert-butyl)-1H-pyrazol-4-yl)-2-(3-methyl-4-((6-(morpholinosulfonyl)quinolin-4-yl)oxy)phenyl)acetamide]",< 2.5
21,"Cc1cc(CC(=O)Nc2cnn(C(C)(C)C)c2)c(F)cc1Oc1ccnc2ccc(C(=O)N3C[C@H]4C[C@@H]3CO4)cc12 [Compound 452, 2-(4-((6-((1R,4R)-2-oxa-5-azabicyclo[2.2.1]heptane-5-carbonyl)quinolin-4-yl)oxy)-2-fluoro-5-methylphenyl)-N-(1-(tert-butyl)-1H-pyrazol-4-yl)acetamide]",< 2.5
22,Cc1cc(CC(=O)Nc2cnn(C(C)(C)C)c2)ccc1Oc1ncnc2ccc(OC3CCN(CCO)CC3)cc12 [Compound 176],4
23,"Cc1cc(CC(=O)Nc2cnn(C(C)(C)C)c2)c(F)cc1Oc1ccnc2ccc(S(=O)(=O)N3C[C@@H](C)O[C@@H](C)C3)cc12 [Compound 389, N-(1-(tert-butyl)-1H-pyrazol-4-yl)-2-(4-((6-(((2R,6S)-2,6-dimethylmorpholino)sulfonyl)quinolin-4-yl)oxy)-2-fluoro-5-methylphenyl)acetamide]",2.9
24,"CC(C)(C)n1cc(NC(=O)Cc2ncc(Oc3ncnc4ccc(F)cc34)cc2F)cn1 [Compound 5, N-(1-(tert-butyl)-1H-pyrazol-4-yl)-2-(3-fluoro-5-((6-fluoroquinazolin-4-yl)oxy)pyridin-2-yl)acetamide]",99.7
25,"Cc1cc(CC(=O)Nc2cnn(C(C)(C)C)c2)ccc1Oc1ccnc2ccc(OC[C@H]3CCCNC3)cc12 [Compound 195, (S)-N-(1-(tert-butyl)-1H-pyrazol-4-yl)-2-(3-methyl-4-((6-(piperidin-3-ylmethoxy)quinolin-4-yl)oxy)phenyl) acetamide]",< 2.5
26,"Cc1c(Oc2ccnc3ccc(S(=O)(=O)C4CCOC4)cc23)ccc(CC(=O)Nc2cnn(C(C)(C)C)c2)c1F (single isomer, unassigned) [Compound 251, N-(1-(tert-butyl)-1H-pyrazol-4-yl)-2-(2-fluoro-3-methyl-4-((6-((tetrahydrofuran-3-yl)sulfonyl)quinolin-4-yl)oxy)phenyl)acetamide]",< 2.5
